In patent US20230293407A1, “Compositions Comprising (Bio)-Alkanediols with Antimicrobials for Product Protection” (Symrise AG, priority 2020, published 2023):

How the values were obtained:
Test in all cases: preservation efficacy test (PET), European Pharmacopoeia 5.1.3
Assay type in all cases: cell-based
Escherichia coli = settings: for number of microorganisms, 2 days / number of microorganisms, 7 days / number of microorganisms, 14 days / number of microorganisms, 28 days: PET, Escherichia coli (EC)
Aspergillus brasiliensis = settings: for number of microorganisms, 2 days / number of microorganisms, 7 days / number of microorganisms, 14 days / number of microorganisms, 28 days: PET, Aspergillus brasiliensis (AB)
Staphylococcus aureus = settings: for number of microorganisms, 2 days / number of microorganisms, 7 days / number of microorganisms, 14 days / number of microorganisms, 28 days: PET, Staphylococcus aureus (SA)
Pseudomonas aeruginosa = settings: PA, use concentration in label
Candida albicans = settings: for number of microorganisms, 2 days / number of microorganisms, 7 days / number of microorganisms, 14 days / number of microorganisms, 28 days: PET, Candida albicans (CA); for number of microorganisms, 2 days: 2 days after inoculation; for number of microorganisms, 7 days: 7 days after inoculation; for number of microorganisms, 14 days: 14 days after inoculation

CCCCCC(O)CO (stereo not drawn) [0.2 % 1,2-heptanediol]
count at 2 days (Escherichia coli; EC, 2 days after inoculation, use concentration in label): 53.000
count at 7 days (Escherichia coli; EC, 7 days after inoculation, use concentration in label): 1.100
count at 14 days (Escherichia coli; EC, 14 days after inoculation, use concentration in label): 1
count at 28 days (Escherichia coli; EC, 28 days after inoculation, use concentration in label): 1
count at 2 days (Aspergillus brasiliensis; AB, 2 days after inoculation, use concentration in label): 790.000
count at 7 days (Aspergillus brasiliensis; AB, 7 days after inoculation, use concentration in label): 630.000
count at 14 days (Aspergillus brasiliensis; AB, 14 days after inoculation, use concentration in label): 230.000
count at 28 days (Aspergillus brasiliensis; AB, 28 days after inoculation, use concentration in label): 220.000
count at 2 days (Staphylococcus aureus; SA, 2 days after inoculation, use concentration in label): 84.000
count at 7 days (Staphylococcus aureus; SA, 7 days after inoculation, use concentration in label): 2.300
count at 14 days (Staphylococcus aureus; SA, 14 days after inoculation, use concentration in label): 1
count at 28 days (Staphylococcus aureus; SA, 28 days after inoculation, use concentration in label): 1
count at 2 days (Pseudomonas aeruginosa; 2 days after inoculation): 1
count at 7 days (Pseudomonas aeruginosa; 7 days after inoculation): 1
count at 14 days (Pseudomonas aeruginosa; 14 days after inoculation): 1
count at 28 days (Pseudomonas aeruginosa; 28 days after inoculation): 1
count at 28 days (Candida albicans; CA, 28 days after inoculation, use concentration in label): 420.000

CCCCCCCCC(O)CO (stereo not drawn) [1,2-decylene glycol, reference compound]
number of microorganisms, 2 days (Escherichia coli; 2 days after inoculation): 1
number of microorganisms, 7 days (Escherichia coli; 7 days after inoculation): 1
number of microorganisms, 14 days (Escherichia coli; 14 days after inoculation): 1
number of microorganisms, 28 days (Escherichia coli; 28 days after inoculation): 1
number of microorganisms, 2 days (Aspergillus brasiliensis; 2 days after inoculation): 600.000
number of microorganisms, 7 days (Aspergillus brasiliensis; 7 days after inoculation): 520.000
number of microorganisms, 14 days (Aspergillus brasiliensis; 14 days after inoculation): 240.000
number of microorganisms, 28 days (Aspergillus brasiliensis; 28 days after inoculation): 190.000
number of microorganisms, 2 days (Staphylococcus aureus; 2 days after inoculation): 1
number of microorganisms, 7 days (Staphylococcus aureus; 7 days after inoculation): 1
number of microorganisms, 14 days (Staphylococcus aureus; 14 days after inoculation): 1
number of microorganisms, 28 days (Staphylococcus aureus; 28 days after inoculation): 1
number of microorganisms, 2 days (Candida albicans): 50.000
number of microorganisms, 7 days (Candida albicans): 12.000
number of microorganisms, 14 days (Candida albicans): 4.100
number of microorganisms, 28 days (Candida albicans; 28 days after inoculation): 1

CCCCCCCC(=O)NO [caprylhydroxamic acid, reference compound]
number of microorganisms, 2 days (Escherichia coli; 2 days after inoculation): 6.900
number of microorganisms, 7 days (Escherichia coli; 7 days after inoculation): 1
number of microorganisms, 14 days (Escherichia coli; 14 days after inoculation): 1
number of microorganisms, 28 days (Escherichia coli; 28 days after inoculation): 1
number of microorganisms, 2 days (Aspergillus brasiliensis; 2 days after inoculation): 810.000
number of microorganisms, 7 days (Aspergillus brasiliensis; 7 days after inoculation): 68.000
number of microorganisms, 14 days (Aspergillus brasiliensis; 14 days after inoculation): 180
number of microorganisms, 28 days (Aspergillus brasiliensis; 28 days after inoculation): 1
number of microorganisms, 2 days (Staphylococcus aureus; 2 days after inoculation): 1
number of microorganisms, 7 days (Staphylococcus aureus; 7 days after inoculation): 1
number of microorganisms, 14 days (Staphylococcus aureus; 14 days after inoculation): 1
number of microorganisms, 28 days (Staphylococcus aureus; 28 days after inoculation): 1
number of microorganisms, 2 days (Candida albicans): 210.000
number of microorganisms, 7 days (Candida albicans): 1
number of microorganisms, 14 days (Candida albicans): 1
number of microorganisms, 28 days (Candida albicans; 28 days after inoculation): 1

O=c1cccccc1O [Tropolone, reference compound]
number of microorganisms, 2 days (Escherichia coli; 2 days after inoculation): 190.000
number of microorganisms, 7 days (Escherichia coli; 7 days after inoculation): 1.100
number of microorganisms, 14 days (Escherichia coli; 14 days after inoculation): 1.100
number of microorganisms, 28 days (Escherichia coli; 28 days after inoculation): 1
number of microorganisms, 2 days (Aspergillus brasiliensis; 2 days after inoculation): 690.000
number of microorganisms, 7 days (Aspergillus brasiliensis; 7 days after inoculation): 26.000
number of microorganisms, 14 days (Aspergillus brasiliensis; 14 days after inoculation): 1.400
number of microorganisms, 28 days (Aspergillus brasiliensis; 28 days after inoculation): 1
number of microorganisms, 2 days (Staphylococcus aureus; 2 days after inoculation): 110.000
number of microorganisms, 7 days (Staphylococcus aureus; 7 days after inoculation): 3.100
number of microorganisms, 14 days (Staphylococcus aureus; 14 days after inoculation): 3.100
number of microorganisms, 28 days (Staphylococcus aureus; 28 days after inoculation): 1
number of microorganisms, 2 days (Candida albicans): 1
number of microorganisms, 7 days (Candida albicans): 1
number of microorganisms, 14 days (Candida albicans): 1
number of microorganisms, 28 days (Candida albicans; 28 days after inoculation): 1

CCCCCCC(O)CO (stereo not drawn) [1,2-octanediol]
number of microorganisms, 2 days (Escherichia coli; 2 days after inoculation): 1
number of microorganisms, 7 days (Escherichia coli; 7 days after inoculation): 1
number of microorganisms, 14 days (Escherichia coli; 14 days after inoculation): 1
number of microorganisms, 28 days (Escherichia coli; 28 days after inoculation): 1
number of microorganisms, 2 days (Aspergillus brasiliensis; 2 days after inoculation): 650.000
number of microorganisms, 7 days (Aspergillus brasiliensis; 7 days after inoculation): 360.000
number of microorganisms, 14 days (Aspergillus brasiliensis; 14 days after inoculation): 250.000
number of microorganisms, 28 days (Aspergillus brasiliensis; 28 days after inoculation): 67.000
number of microorganisms, 2 days (Staphylococcus aureus; 2 days after inoculation): 1
number of microorganisms, 7 days (Staphylococcus aureus; 7 days after inoculation): 1
number of microorganisms, 14 days (Staphylococcus aureus; 14 days after inoculation): 1
number of microorganisms, 28 days (Staphylococcus aureus; 28 days after inoculation): 1
number of microorganisms, 2 days (Candida albicans): 70.000
number of microorganisms, 7 days (Candida albicans): 9.000
number of microorganisms, 14 days (Candida albicans): 1
number of microorganisms, 28 days (Candida albicans; 28 days after inoculation): 1
